Where two headings read alike, the source gives them in different places.
How the values were obtained:
Acanthamoeba cysts = details: 48 h of exposure; cited from earlier work
[1] = system: Acanthamoeba trophozoites; details: 48 h of exposure; cited from earlier work
S. pneumoniae [2] = details: cited from earlier work
[3] = system: Acanthamoeba species cysts; assay: PMN testing of Acanthamoeba species, xylitol with PHMB; assay type: cell-based; details: xylitol 6% to 20%
Source text: In PMN testing of a number of Acanthamoeba species, Xylitol in concentrations ranging from 6% to 20% has appeared to potentiate the acanthamoeba cysticidal effects of PHMB. In order for a disinfectant like PHMB to be cysticidal, it must gain access to the trophozoite internalized within the cyst. The most obvious route is via the ostioles or the pores in the double cell wall of the cyst that connect the outer exocyst and inner endocyst, thus allowing the internalized amoeba to communicate with its outside environment. It is believed that the mucopolysaccharides of the ostioles are altered by xylitol that enhance the binding by PHMB to allow […] penetration of the disinfectant.

H. influenzae [4] = details: 5% xylitol; cited from earlier work
[5] = 8.4-10 g daily in five doses, 2-3 months follow-up, cited from earlier work
SARS-CoV-2 = details: in vitro, within minutes of application, lasting for hours; cited from earlier work
H. influenzae [6] = details: cited from earlier work
[7] = system: beta-haemolytic streptococci; details: 5% xylitol; cited from earlier work
S. mutans [8] = details: in spite of the presence of glucose or sucrose; cited from earlier work
S. mutans [9] = details: cited from earlier work
S. pneumoniae [10] = details: glucose in the growth medium, cited from earlier work
Streptococcus salivarius = details: cited from earlier work
Streptococcus sanguis = details: cited from earlier work
[11] = in vivo; cited from earlier work
[12] = limited human studies of topical xylitol; assay type: in vivo; details: topical 4% to 7% xylitol, 2-5 times per day
[13] = system: Streptococcus pneumoniae strains; details: xylitol 0.5 to 5%; cited from earlier work
M. catarrhalis = details: 5% xylitol; cited from earlier work

For Polyhexamethylene Biguanide [PHMB], the “minimum cysticidal concentration (MCC)” value (Acanthamoeba cysts) is listed as 3 g/mL and the “minimum trophozoite amoebicidal concentration (MTAC)” value [1] is listed as 1 g/mL.
In the case of `OC[C@@H](O)[C@H](O)[C@@H](O)CO` [Xylitol], the “concentration sufficient to reduce adherence of S. pneumoniae to epithelial cells” value (S. pneumoniae [2]) is listed as 5%, the “effect on acanthamoeba cysticidal effects of PHMB” value [3] is listed as “potentiate” and the “growth of H. influenza” value (H. influenzae [4]) is listed as “minimally affected”. For the same compound, the “reduction of acute otitis media” value ([5]; chewing gum) was “approximately 40%”, the “reduction of acute otitis media” value ([5]; oral xylitol syrup) was “approximately 30%” and the “reduction of virion concentrations” value (SARS-CoV-2) was “multiple log MAR reduction”. The “concentration sufficient to reduce adherence of H. influenzae to epithelial cells” value (H. influenzae [6]) was 5%, the “growth of beta-haemolytic streptococci” value [7] was “more modestly impaired” and the “growth of S. mutans” value (S. mutans [8]) was “markedly reduced”. For the same compound, the “concentration capable of reducing adherence of S. mutans” value (S. mutans [9]) was 6%, the “inhibition of pneumococcal growth” value (S. pneumoniae [10]; 1% xylitol) was 39% and the “inhibition of pneumococcal growth” value (S. pneumoniae [10]; 5% xylitol solution) was 72%. For the same compound, the “effect on growth of Streptococcus salivarius” value (Streptococcus salivarius) was “modest by comparison, but still significant”, the “effect on growth of Streptococcus sanguis” value (Streptococcus sanguis) was “modest by comparison, but still significant” and the “time until xylitol disappeared from the saliva” value [11] was at most 15 min. For the same compound, the “corneal SPK” value [12] was “reduce”, the “symptoms and inflammation (imaging of retro-palpebral and ocular surface mucosa, Meibomian gland obstruction)” value [12] was “improve” and the “adherence on epithelial cells” value [13] was “did not diminish significantly”. For the same compound, the “growth of M. catarrhalis” value (M. catarrhalis) was “minimally affected”.

Source: patent US20240189254A1, “Xylitol Topical Ocular Solution” (GSX Pharma LLC, priority 2022, published 2024)
